pIC50: −log10 of the molar value. Where a name gives a salt, the structure may show the parent alone. Read-outs that look alike come from different tables or passages of the source.
Key:
DNMT1 = DNMT1 (Homo sapiens, UniProt P26358); assay: DNMT1 biochemical activity, breaklight assay and/or SPA assay
human DNMT3a/3l = human DNMT3a/3l (Homo sapiens (Human), UniProt Q9Y6K1); assay: DNMT3a/3l breaklight assay; type: biochemical
Method: DNMT3a/3l Breakliqht Assay
DNMT3a/3l breaklight in vitro assays were conducted in a total volume of 50 μl in a standard 384 well format, using black non-binding surface microplates (Corning #3575). […] Negative control wells used 5 μl of DNMT3a/3l and 5 μl of oligonucleotide but also included 200 μM SAH. All reagents were made up in 1× assay buffer (20 mM Tris pH 7.4, 100 mM NaCl, 1.5 mM EDTA, 0.1 mM MgCl2, 1 mM CHAPS and 1 mM DTT). The reaction was incubated at 37° C. for 90 min and then stopped with the addition of 40 μl detection reagent. Detection reagent, made up in 1× Gla assay buffer (20 mM Tris pH 8.0, 80 mM NaCl, 0.75 mM MgCl2, 0.01% Triton X100 and 1 mM DTT) has a final concentration of 200 μM SAH (Sigma #A9384) and 0.0008 units/μl Gla1 restriction endonuclease (Sibenzyme #E494). Following addition of the detection reagent the plate was incubated in the dark at room temperature for 5 hr. Fluorescence intensity was then measured on the PHERAstar FS (BMG Labtech) at Ex 485 nm and Em 520 nm, with a gain of 400 and an integration time of 100 ms.

DNMT3B = DNMT3B (Homo sapiens (Human), UniProt Q9UBC3); assay: DNMT3B breaklight assay; type: biochemical
[1] = test system: erythroid progenitor cells (EPCs); assay: Fetal hemoglobin (HbF) ELISA in day 7 erythroid progenitor cells; type: cell-based, human; conditions: Homo sapiens, Erythroid progenitor cell, HbF ELISA, day 7 EPCs, 5 days; read-out: EPC ELISA (pEC50 category) (converted);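 note: for fetal hemoglobin induction normalized to vehicle-treated cells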
Summary of the method: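 HbF induction was read by anti-HbF sandwich ELISA (HRP/TMB, OD450) on lysates and normalized to vehicle-treated cells. Cells were day 7 erythroid progenitors derived from human bone marrow CD34+ cells, seeded at 1,000/well with 3 U/mL rhEPO. Compound was given for 5 days at 37 °C at final concentrations […].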

[2] = binned activity in either the breaklight or the SPA assay, read-out: DNMT1 BioChemical (pIC50 category) (converted)
[3] = read-out: DNMT3A Breaklight IC50
[4] = read-out: DNMT3B Breaklight IC50
[5] = repeated experimental runs, read-out: average IC50, DNMT3A breaklight assay
[6] = repeated experimental runs, read-out: average IC50, DNMT3B breaklight assay
[7] = binned activity in either the breaklight or the SPA assay
[8] = breaklight assay and/or SPA assay, repeated experimental runs
[9] = breaklight assay and/or SPA assay, repeated experimental runs, read-out: average pIC50 against DNMT1 (converted)

Sequence of DNMT1 (P26358 whole entry, looked up): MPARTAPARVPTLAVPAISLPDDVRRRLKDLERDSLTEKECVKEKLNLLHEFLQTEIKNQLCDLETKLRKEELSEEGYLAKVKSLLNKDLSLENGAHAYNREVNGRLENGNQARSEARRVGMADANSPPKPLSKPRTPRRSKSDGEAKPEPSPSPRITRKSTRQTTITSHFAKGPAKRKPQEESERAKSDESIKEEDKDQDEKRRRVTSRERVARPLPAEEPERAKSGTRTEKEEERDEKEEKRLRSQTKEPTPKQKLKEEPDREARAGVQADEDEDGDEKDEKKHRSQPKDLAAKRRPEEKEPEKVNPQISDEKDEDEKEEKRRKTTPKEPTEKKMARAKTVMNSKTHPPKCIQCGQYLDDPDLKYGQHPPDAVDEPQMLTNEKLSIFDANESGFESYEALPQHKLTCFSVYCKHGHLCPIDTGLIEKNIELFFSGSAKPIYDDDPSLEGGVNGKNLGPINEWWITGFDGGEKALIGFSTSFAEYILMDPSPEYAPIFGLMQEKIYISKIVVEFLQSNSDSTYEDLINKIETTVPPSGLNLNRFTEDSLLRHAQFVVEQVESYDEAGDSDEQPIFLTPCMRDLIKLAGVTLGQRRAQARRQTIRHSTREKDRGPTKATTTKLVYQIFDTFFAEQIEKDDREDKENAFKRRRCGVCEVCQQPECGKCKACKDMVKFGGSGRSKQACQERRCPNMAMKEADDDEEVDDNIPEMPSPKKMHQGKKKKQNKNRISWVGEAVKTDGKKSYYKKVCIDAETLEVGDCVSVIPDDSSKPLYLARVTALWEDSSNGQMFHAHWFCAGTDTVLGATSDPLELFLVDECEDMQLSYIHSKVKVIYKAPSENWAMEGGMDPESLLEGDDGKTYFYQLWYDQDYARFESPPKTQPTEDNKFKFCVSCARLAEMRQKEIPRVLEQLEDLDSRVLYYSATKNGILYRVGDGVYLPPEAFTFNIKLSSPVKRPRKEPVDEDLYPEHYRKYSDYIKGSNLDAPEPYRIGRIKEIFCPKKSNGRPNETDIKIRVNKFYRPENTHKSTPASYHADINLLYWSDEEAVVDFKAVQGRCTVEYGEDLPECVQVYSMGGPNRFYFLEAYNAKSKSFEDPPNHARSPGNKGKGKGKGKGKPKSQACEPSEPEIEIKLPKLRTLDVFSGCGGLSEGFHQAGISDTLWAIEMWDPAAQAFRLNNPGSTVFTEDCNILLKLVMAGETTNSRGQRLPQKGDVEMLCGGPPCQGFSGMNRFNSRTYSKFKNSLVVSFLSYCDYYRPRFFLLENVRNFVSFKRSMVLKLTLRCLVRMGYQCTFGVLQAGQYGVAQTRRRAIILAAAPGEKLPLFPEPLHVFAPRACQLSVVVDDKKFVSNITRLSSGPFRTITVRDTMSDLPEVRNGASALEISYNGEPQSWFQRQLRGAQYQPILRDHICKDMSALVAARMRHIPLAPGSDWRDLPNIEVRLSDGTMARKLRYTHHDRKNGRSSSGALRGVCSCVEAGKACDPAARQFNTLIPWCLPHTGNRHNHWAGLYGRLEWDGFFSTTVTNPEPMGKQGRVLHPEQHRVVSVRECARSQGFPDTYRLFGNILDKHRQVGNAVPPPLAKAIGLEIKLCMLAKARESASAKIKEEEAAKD
Sequence of human DNMT3a/3l (Q9Y6K1 whole entry, looked up): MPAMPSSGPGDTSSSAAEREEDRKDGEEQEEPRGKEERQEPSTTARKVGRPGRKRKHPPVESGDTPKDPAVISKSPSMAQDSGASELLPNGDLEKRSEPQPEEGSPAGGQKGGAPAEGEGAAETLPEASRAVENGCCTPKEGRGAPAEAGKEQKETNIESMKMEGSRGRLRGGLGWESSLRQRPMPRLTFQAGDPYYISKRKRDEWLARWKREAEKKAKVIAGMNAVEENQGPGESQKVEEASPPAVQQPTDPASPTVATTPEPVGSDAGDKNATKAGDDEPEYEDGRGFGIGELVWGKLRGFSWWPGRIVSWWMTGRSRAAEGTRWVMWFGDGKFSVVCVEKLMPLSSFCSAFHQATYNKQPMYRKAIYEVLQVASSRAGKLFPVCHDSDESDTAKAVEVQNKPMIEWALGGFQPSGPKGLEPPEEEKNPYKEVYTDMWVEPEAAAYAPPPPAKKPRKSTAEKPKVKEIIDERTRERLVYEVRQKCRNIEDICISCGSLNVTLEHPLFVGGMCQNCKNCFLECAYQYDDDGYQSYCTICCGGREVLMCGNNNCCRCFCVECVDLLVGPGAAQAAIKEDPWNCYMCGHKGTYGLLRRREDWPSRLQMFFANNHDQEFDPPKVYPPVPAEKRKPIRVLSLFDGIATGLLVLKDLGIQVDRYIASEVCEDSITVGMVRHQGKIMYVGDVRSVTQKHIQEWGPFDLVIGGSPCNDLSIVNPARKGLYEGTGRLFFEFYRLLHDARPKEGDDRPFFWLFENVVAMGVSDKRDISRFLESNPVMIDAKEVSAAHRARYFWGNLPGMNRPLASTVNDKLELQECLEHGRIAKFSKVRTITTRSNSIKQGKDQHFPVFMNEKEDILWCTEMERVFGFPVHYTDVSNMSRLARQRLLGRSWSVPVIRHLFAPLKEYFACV
Sequence of human DNMT3a/3l (Q9UJW3 whole entry partner, looked up): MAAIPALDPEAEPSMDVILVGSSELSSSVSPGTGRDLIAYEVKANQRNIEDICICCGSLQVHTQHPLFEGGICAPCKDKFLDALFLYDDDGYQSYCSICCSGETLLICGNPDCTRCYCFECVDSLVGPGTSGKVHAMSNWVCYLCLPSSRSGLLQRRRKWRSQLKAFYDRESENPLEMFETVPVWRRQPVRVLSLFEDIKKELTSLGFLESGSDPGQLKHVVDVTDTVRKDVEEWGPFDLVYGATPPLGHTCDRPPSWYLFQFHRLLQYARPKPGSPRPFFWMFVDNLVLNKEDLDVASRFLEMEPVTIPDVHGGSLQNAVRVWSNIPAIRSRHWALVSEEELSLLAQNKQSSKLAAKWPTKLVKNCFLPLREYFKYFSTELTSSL

Compound	IC50 (DNMT1; [2])	pIC50 (human DNMT3a/3l; [3])	pIC50 (DNMT3B; [4])	EC50 [1]	pIC50 (human DNMT3a/3l; [5])	pIC50 (DNMT3B; [6])	DNMT1 BioChemical (pIC50 category) (DNMT1; [7])	average pIC50 against DNMT1 (DNMT1; [8])	IC50 (DNMT1; [9])	average pIC50 against DNMT1 (DNMT1; breaklight assay and/or SPA assay, repeated experimental runs, Trifluoroacetic Acid Salt)
CCc1c(C#N)c(N)nc(S[C@@H](C(N)=O)c2ccccc2)c1C#N [Example 2, (R)-[(6-amino-3,5-dicyano-4-ethylpyridin-2-yl)sulfanyl]-2-phenylacetamide]	0.316 to 1 µM	< 3.30	< 3.30	> 31.6 µM	–	–	–	–	–	–
CCc1c(C#N)c(SC(C(N)=O)c2ccccc2)nc(N(C)CCOC)c1C#N (centres unmarked) [Example 53, 2-((3,5-Dicyano-4-ethyl-6-((2-methoxyethyl)(methyl)amino)pyridin-2-yl)thio)-2-phenylacetamide]	1 to 31.6 µM	< 3.30	< 3.30	1 to 31.6 µM	–	–	–	–	–	–
CCc1c(C#N)c(SC(C(N)=O)c2ccccc2)nc(N2CCC(N3CCNC3=O)CC2)c1C#N (centres unmarked) [Example 47, 2-((3,5-Dicyano-4-ethyl-6-(4-(2-oxoimidazolidin-1-yl)piperidin-1-yl)pyridin-2-yl)thio)-2-phenylacetamide]	0.316 to 1 µM	< 3.30	< 3.30	0.316 to 1 µM	< 3.30	< 3.30	–	–	–	–
N#Cc1c(N)nc(SC(C(N)=O)c2ccccc2)c(C#N)c1C1CC1 (centres unmarked) [Example 51, 2-[(6-amino-3,5-dicyano-4-cyclopropyl-2-pyridyl)sulfanyl]-2-phenyl-acetamide]	0.316 to 1 µM	< 3.30	< 3.30	> 31.6 µM	–	–	–	–	–	–
CCc1c(C#N)c(SC(C(N)=O)c2ccccc2)nc(N2CCCN(CC)CC2)c1C#N (centres unmarked) [Example 7, 2-{[3,5-dicyano-4-ethyl-6-(4-ethyl-1,4-diazepan-1-yl)pyridin-2-yl]sulfanyl}-2-phenylacetamide]	–	< 3.30	< 3.30	< 0.316 µM	< 3.30	< 3.30	D (Category D: ≥6.5)	–	–	–
CCCN1CCCN(c2nc(SC(C(N)=O)c3ccccc3)c(C#N)c(CC)c2C#N)CC1 (centres unmarked) [Example 6, 2-((3,5-dicyano-4-ethyl-6-(4-propyl-1,4-diazepan-1-yl)pyridin-2-yl)thio)-2-phenylacetamide]	–	< 3.30	< 3.30	< 0.316 µM	< 3.30	< 3.30	D (Category D: ≥6.5)	–	–	–
CCc1c(C#N)c(SC(C(N)=O)c2ccccc2)nc(N2CCC(NC(=O)[C@H](C)N)CC2)c1C#N (stereo partly drawn) [Example 138, (2S)-2-Amino-N-(1-(6-((2-amino-2-oxo-1-phenylethyl)thio)-3,5-dicyano-4-ethylpyridin-2-yl)piperidin-4-yl)propanamide, Trifluoroacetic Acid Salt]	–	–	3.78	< 0.316 µM	–	–	D (Category D: ≥6.5)	–	0.1 µM	> 6.5
CCc1c(C#N)c(NC)nc(SC(C(N)=O)c2ccccc2)c1C#N (centres unmarked) [Example 52, 2-((3,5-Dicyano-4-ethyl-6-(methylamino)pyridin-2-yl)thio)-2-phenylacetamide]	0.316 to 1 µM	< 3.30	< 3.30	1 to 31.6 µM	< 3.30	< 3.30	–	–	–	–
CCc1c(C#N)c(SCc2ccc(CC(N)=O)cc2)nc(N2CCCN(C)CC2)c1C#N [Example 83, 2-(4-(((3,5-dicyano-4-ethyl-6-(4-methyl-1,4-diazepan-1-yl)pyridin-2-yl)thio)methyl)phenyl)acetamide]	–	–	< 3.60	< 0.316 µM	–	–	D (Category D: ≥6.5)	> 6.5	–	–
CCc1c(C#N)c(SCc2ccc(CNC(=O)CO)cc2)nc(N2CCCN(C)CC2)c1C#N [Example 86, N-(4-(((3,5-Dicyano-4-ethyl-6-(4-methyl-1,4-diazepan-1-yl)pyridin-2-yl)thio)methyl)benzyl)-2-hydroxyacetamide]	–	–	< 3.60	< 0.316 µM	–	–	D (Category D: ≥6.5)	> 6.5	0.2 µM	–
CCc1c(C#N)c(SCc2ccc(CC(=O)NC)cc2)nc(N2CCCN(C)CC2)c1C#N [Example 84, 2-(4-(((3,5-Dicyano-4-ethyl-6-(4-methyl-1,4-diazepan-1-yl)pyridin-2-yl)thio)methyl)phenyl)-N-methylacetamide]	–	–	< 3.60	< 0.316 µM	–	–	D (Category D: ≥6.5)	–	–	–

More lines, main results first:

IC50 (DNMT1; [2])	pIC50 (human DNMT3a/3l; [3])	pIC50 (DNMT3B; [4])	EC50 [1]	pIC50 (human DNMT3a/3l; [5])	pIC50 (DNMT3B; [6])	DNMT1 BioChemical (pIC50 category) (DNMT1; [7])	average pIC50 against DNMT1 (DNMT1; [8])	IC50 (DNMT1; [9])	Compound	average pIC50 against DNMT1 (DNMT1; breaklight assay and/or SPA assay, repeated experimental runs, Trifluoroacetic Acid Salt)
–	< 3.30	3.42	< 0.316 µM	–	–	D (Category D: ≥6.5)	> 6.5	–	CCc1c(C#N)c(SC(C(N)=O)c2ccccc2)nc(N2CCC(C)(N)CC2)c1C#N (centres unmarked) [Example 136, 2-((6-(4-Amino-4-methylpiperidin-1-yl)-3,5-dicyano-4-ethylpyridin-2-yl)thio)-2-phenylacetamide]	–
0.316 to 1 µM	< 3.30	< 3.30	0.316 to 1 µM	–	–	–	–	–	CCc1c(C#N)c(SC(C(N)=O)c2ccc(Cl)cc2)nc(N(C)C)c1C#N (centres unmarked) [Example 128, 2-(4-Chlorophenyl)-2-((3,5-dicyano-6-(dimethylamino)-4-ethylpyridin-2-yl)thio)acetamide]	–
–	< 3.30	3.91	< 0.316 µM	–	–	D (Category D: ≥6.5)	–	–	CCc1c(C#N)c(SC(C(N)=O)c2ccccc2)nc(N2CCC3(CCCN(C)C3)CC2)c1C#N (centres unmarked) [Example 118, 2-((3,5-Dicyano-4-ethyl-6-(2-methyl-2,9-diazaspiro[5.5]undecan-9-yl)pyridin-2-yl)thio)-2-phenylacetamide]	–
–	< 3.30	< 3.30	< 0.316 µM	–	–	D (Category D: ≥6.5)	–	–	CCc1c(C#N)c(SC(C(N)=O)c2ccccc2)nc(N2CCCN(CCOC)CC2)c1C#N (centres unmarked) [Example 106, 2-({3,5-Dicyano-4-ethyl-6-[4-(2-methoxyethyl)-1,4-diazepan-1-yl]pyridin-2-yl}sulfanyl)-2-phenylacetamide]	–
0.316 to 1 µM	< 3.30	< 3.30	1 to 31.6 µM	–	–	–	–	≥ 1 µM	CCc1c(C#N)c(SC(C(N)=O)c2ccccc2)nc(N2CCN(CCO)CC2)c1C#N (centres unmarked) [Example 129, 2-((3,5-Dicyano-4-ethyl-6-(4-(2-hydroxyethyl)piperazin-1-yl)pyridin-2-yl)thio)-2-phenylacetamide]	–
–	< 3.30	< 3.30	< 0.316 µM	–	–	D (Category D: ≥6.5)	–	–	CCc1c(C#N)c(SC(C(N)=O)c2ccccc2)nc(N2CCCNCC2)c1C#N (centres unmarked) [Example 112, 2-{[3,5-Dicyano-6-(1,4-diazepan-1-yl)-4-ethylpyridin-2-yl]sulfanyl}-2-phenylacetamide]	–
–	< 3.30	< 3.30	0.316 to 1 µM	–	–	D (Category D: ≥6.5)	–	–	CN(C)c1nc(SC(C(N)=O)c2ccccc2)c(C#N)c(C2CC2)c1C#N (centres unmarked) [Example 127, 2-((3,5-Dicyano-4-cyclopropyl-6-(dimethylamino)pyridin-2-yl)thio)-2-phenylacetamide]	–
–	–	3.60	< 0.316 µM	–	–	D (Category D: ≥6.5)	–	–	CCc1c(C#N)c(SCc2ccc(S(=O)(=O)NC)cc2)nc(N2CCCN(C)CC2)c1C#N [Example 104, 4-(((3,5-Dicyano-4-ethyl-6-(4-methyl-1,4-diazepan-1-yl)pyridin-2-yl)thio)methyl)-N-methylbenzenesulfonamide]	–

Reference: US10975056B2 (GlaxoSmithKline Intellectual Property Development Limited, priority 2016, dated 2021)
